Activity calls are given as the source filed them. No cut-off for these calls is given here.
Key:
[1] = test system: HT-29; test: Cytotoxicity against human HT-29 cells assessed as reduction in cell proliferation measured after 72 hrs by MTT assay; assay type: functional, cell-based; details: HT-29, 72 h
[2] = test system: A549; test: Cytotoxicity against human A549 cells assessed as reduction in cell proliferation measured after 72 hrs by MTT assay; assay type: functional, cell-based; details: A549, 72 h
[3] = test system: HT-29; test: Induction of apoptosis in human HT-29 cells measured after 72 hrs by Annexin V-FITC/propidium iodide staining based FACS analysis; assay type: functional, cell-based
[4] = test system: HT-29; test: Induction of apoptosis in human HT-29 cells assessed as early apoptotic cells at 0.3 ug/ml measured after 24 hrs by Annexin V-FITC/propidium iodide staining based FACS analysis (reference value: 4.9%); assay type: functional
[5] = molecular target: Vascular endothelial growth factor receptor 2 (Homo sapiens, UniProt P35968); test: Inhibition of VEGFR2 (unknown origin) using FAM-labelled peptide as substrate measured after 10 mins by mobility shift assay
Vascular endothelial growth factor receptor 2, sequence (P35968 whole entry): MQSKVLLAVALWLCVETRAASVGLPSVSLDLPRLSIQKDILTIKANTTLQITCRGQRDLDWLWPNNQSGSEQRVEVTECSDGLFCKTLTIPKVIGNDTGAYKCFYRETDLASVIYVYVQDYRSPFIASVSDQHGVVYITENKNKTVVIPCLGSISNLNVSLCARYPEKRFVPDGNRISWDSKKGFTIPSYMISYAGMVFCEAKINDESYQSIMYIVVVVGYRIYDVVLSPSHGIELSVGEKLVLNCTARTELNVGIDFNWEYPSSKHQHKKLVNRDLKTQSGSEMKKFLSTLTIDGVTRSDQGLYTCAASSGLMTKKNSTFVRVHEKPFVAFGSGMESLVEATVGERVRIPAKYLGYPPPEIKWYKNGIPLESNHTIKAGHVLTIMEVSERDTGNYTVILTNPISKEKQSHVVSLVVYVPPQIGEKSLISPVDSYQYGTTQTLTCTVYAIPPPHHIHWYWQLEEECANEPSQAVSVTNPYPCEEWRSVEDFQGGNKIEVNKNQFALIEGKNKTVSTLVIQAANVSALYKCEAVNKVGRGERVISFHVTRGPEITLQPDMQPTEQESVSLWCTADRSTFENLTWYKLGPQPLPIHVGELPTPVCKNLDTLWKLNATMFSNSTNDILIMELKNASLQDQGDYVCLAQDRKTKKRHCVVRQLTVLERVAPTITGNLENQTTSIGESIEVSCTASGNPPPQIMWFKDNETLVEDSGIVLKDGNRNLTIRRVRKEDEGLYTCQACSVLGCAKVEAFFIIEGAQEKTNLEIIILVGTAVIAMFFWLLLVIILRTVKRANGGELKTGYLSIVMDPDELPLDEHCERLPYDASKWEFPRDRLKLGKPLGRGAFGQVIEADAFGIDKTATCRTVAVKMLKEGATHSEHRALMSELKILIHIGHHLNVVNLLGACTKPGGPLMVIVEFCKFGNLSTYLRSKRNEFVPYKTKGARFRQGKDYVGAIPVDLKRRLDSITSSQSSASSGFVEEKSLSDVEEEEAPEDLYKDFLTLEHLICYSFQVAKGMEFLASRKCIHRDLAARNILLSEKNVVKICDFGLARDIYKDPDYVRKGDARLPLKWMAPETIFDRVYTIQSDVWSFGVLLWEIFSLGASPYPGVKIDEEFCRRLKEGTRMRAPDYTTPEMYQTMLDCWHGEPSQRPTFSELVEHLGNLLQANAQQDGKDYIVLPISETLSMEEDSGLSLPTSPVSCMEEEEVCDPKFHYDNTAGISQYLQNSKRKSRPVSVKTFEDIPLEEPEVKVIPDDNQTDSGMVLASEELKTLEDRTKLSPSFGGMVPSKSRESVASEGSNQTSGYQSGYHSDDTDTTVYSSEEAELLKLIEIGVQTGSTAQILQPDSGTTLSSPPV

[6] = molecular target: Epidermal growth factor receptor (Homo sapiens, UniProt P00533); test: Inhibition of EGFR (unknown origin) using FAM-labelled peptide as substrate measured after 10 mins by mobility shift assay
Epidermal growth factor receptor, sequence (P00533 whole entry): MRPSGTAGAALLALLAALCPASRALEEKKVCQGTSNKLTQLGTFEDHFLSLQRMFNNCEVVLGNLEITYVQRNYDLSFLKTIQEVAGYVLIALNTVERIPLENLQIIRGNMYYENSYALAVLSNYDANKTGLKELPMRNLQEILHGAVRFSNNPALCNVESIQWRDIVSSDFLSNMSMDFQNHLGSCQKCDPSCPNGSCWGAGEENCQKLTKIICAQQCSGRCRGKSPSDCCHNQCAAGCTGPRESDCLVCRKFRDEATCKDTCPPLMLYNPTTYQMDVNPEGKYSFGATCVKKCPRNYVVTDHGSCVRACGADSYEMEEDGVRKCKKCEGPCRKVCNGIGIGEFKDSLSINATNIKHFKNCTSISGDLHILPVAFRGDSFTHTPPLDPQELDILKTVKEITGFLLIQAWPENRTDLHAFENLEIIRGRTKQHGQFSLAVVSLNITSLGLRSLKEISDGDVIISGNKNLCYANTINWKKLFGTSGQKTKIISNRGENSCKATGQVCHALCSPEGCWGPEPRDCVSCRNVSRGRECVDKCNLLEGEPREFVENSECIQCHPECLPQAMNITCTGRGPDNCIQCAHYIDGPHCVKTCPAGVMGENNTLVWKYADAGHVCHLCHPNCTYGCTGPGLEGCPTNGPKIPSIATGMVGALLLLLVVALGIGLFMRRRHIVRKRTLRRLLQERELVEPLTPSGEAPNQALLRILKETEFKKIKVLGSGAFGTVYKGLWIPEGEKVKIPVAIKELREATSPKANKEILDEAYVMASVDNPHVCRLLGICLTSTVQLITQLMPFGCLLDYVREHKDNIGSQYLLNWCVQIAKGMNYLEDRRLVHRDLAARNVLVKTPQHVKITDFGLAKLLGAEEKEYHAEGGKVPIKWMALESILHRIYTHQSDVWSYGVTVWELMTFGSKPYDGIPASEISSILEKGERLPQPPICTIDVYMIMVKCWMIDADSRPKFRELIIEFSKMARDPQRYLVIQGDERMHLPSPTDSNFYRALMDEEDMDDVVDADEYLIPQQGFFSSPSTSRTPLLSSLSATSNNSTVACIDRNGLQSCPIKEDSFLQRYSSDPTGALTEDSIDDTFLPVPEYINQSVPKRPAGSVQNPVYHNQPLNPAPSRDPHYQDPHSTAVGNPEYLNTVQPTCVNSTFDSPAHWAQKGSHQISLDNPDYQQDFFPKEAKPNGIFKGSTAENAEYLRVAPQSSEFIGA

[7] = test system: HT-29; test: Antiproliferative activity against human HT-29 cells assessed as reduction in cell proliferation at 10 ug/ml after 72 hrs by phase contrast microscopy; assay type: functional, cell-based
[8] = molecular target: Insulin-like growth factor 1 receptor (Homo sapiens, UniProt P08069); test: Inhibition of IGF1R (unknown origin) using FAM-labelled peptide as substrate measured after 10 mins by mobility shift assay
Insulin-like growth factor 1 receptor, sequence (P08069 31-736 limits assumed): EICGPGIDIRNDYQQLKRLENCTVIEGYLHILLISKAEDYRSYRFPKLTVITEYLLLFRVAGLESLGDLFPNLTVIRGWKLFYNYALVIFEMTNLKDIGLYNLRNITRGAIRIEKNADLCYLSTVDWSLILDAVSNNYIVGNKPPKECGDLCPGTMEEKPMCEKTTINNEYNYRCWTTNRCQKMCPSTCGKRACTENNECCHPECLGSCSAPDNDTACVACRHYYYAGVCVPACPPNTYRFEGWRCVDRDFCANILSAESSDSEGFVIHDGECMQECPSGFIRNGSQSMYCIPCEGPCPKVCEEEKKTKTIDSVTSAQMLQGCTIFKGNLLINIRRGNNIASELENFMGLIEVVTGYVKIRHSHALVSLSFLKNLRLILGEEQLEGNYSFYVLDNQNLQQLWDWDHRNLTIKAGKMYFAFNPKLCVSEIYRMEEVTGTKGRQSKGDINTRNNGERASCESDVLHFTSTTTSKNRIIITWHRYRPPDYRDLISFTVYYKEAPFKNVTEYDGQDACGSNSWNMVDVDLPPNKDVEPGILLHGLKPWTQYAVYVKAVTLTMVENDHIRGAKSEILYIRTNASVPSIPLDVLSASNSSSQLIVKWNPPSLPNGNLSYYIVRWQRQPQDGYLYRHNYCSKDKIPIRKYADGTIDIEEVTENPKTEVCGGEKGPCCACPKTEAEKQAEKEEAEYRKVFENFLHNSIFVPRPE
Insulin-like growth factor 1 receptor, sequence (P08069 741-1367 limits assumed): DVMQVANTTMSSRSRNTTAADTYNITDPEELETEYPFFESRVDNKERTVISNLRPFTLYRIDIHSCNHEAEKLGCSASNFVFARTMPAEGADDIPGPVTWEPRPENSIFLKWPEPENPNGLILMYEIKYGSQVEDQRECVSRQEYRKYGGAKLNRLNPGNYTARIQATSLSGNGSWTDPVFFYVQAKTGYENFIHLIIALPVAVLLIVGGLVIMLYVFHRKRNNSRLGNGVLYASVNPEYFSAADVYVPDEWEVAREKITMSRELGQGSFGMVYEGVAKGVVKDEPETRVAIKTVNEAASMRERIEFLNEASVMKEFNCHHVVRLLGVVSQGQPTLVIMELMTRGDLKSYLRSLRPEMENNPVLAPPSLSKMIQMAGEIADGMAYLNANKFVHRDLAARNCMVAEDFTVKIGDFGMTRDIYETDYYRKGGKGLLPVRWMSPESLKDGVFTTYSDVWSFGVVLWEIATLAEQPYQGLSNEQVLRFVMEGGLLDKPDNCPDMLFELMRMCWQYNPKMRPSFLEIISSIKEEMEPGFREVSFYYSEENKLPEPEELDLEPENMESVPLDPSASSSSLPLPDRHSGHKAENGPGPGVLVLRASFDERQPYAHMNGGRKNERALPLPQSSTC

[9] = test system: HT-29; test: Antimigratory activity against human HT-29 cells assessed as reduction in cell migration at 3.33 ug/ml measured every hour for 72 hrs by IncuCyte real-time cell imaging analysis; assay type: functional, cell-based
[10] = test system: HT-29; test: Induction of apoptosis in human HT-29 cells assessed as early apoptotic cells at 3 ug/ml measured after 24 hrs by Annexin V-FITC/propidium iodide staining based FACS analysis (reference value: 4.9%); assay type: functional
[11] = molecular target: T1, Receptor-type tyrosine-protein kinase FLT3 (Homo sapiens, UniProt P36888); test: Inhibition of FLT3 (unknown origin) using FAM-labelled peptide as substrate measured after 10 mins by mobility shift assay
T1 sequence (P36888 whole entry): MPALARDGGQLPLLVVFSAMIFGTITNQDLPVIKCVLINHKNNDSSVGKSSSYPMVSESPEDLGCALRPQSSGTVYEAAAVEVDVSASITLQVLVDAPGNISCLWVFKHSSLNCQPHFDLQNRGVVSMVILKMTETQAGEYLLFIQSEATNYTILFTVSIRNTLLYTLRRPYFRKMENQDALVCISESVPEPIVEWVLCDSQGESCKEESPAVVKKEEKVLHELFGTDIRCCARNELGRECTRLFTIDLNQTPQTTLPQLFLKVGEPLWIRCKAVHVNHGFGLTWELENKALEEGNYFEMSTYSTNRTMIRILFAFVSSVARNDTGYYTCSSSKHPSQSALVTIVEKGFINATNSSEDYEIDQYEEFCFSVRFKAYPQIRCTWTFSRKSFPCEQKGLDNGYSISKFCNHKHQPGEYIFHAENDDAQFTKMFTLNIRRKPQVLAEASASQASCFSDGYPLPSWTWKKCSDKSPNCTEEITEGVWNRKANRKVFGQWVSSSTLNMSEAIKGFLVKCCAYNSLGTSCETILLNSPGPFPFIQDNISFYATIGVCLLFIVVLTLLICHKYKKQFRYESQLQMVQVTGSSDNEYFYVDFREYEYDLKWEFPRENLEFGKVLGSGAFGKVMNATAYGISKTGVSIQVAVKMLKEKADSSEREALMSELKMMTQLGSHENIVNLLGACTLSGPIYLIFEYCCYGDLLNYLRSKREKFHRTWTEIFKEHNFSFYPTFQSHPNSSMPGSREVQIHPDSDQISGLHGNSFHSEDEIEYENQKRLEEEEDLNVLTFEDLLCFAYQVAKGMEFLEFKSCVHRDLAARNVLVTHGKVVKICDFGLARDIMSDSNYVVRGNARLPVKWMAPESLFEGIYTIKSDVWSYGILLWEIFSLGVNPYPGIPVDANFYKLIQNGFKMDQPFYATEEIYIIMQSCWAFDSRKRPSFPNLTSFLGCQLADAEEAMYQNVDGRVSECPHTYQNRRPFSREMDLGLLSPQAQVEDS

[12] = test system: HT-29; test: Antimigratory activity against human HT-29 cells assessed as reduction in cell migration at 3.33 ug/ml measured every hour for 48 hrs by IncuCyte real-time cell imaging analysis; assay type: functional, cell-based
[13] = test system: HT-29; test: Antiproliferative activity against human HT-29 cells assessed as reduction in cell proliferation by phase contrast microscopy; assay type: functional, cell-based
[14] = molecular target: Mast/stem cell growth factor receptor Kit (Homo sapiens, UniProt P10721); test: Inhibition of c-KIT (unknown origin) using FAM-labelled peptide as substrate measured after 10 mins by mobility shift assay
[15] = molecular target: Proto-oncogene tyrosine-protein kinase Src (Homo sapiens, UniProt P12931); test: Inhibition of c-SRC (unknown origin) using FAM-labelled peptide as substrate measured after 10 mins by mobility shift assay
Proto-oncogene tyrosine-protein kinase Src, sequence (P12931 2-536 limits assumed): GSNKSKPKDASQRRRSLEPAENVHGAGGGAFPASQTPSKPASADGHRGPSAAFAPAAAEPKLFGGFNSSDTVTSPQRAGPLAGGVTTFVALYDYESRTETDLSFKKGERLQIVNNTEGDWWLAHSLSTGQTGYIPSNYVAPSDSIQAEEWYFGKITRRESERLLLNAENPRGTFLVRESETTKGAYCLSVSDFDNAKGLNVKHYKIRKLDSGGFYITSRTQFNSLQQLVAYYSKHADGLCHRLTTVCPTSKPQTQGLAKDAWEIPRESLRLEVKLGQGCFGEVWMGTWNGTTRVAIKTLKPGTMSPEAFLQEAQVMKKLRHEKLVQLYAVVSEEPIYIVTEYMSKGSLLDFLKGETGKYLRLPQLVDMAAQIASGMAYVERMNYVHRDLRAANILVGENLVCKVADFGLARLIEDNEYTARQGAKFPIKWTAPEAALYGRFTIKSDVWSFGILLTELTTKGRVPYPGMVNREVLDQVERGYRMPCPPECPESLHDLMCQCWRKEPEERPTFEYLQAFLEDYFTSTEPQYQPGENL

[16] = test system: HT-29; test: Ratio of test compound effect to cabozantinib effect for antiproliferative activity against human HT-29 cells assessed as increase in dead cell population measured after 14 hrs by IncuCyte live-cell imaging analysis; assay type: functional
[17] = test system: HT-29; test: Antiproliferative activity against human HT-29 cells assessed as increase in dead cell population by IncuCyte live-cell imaging analysis; assay type: functional, cell-based
[18] = test system: HT-29; test: Induction of apoptosis in human HT-29 cells assessed as early apoptotic cells at 5 ug/ml measured after 24 hrs by Annexin V-FITC/propidium iodide staining based FACS analysis (reference value: 4.9%); assay type: functional
[19] = test system: HT-29; test: Antiproliferative activity against human HT-29 cells assessed as increase in dead cell population at 10 ug/ml measured after 14 hrs by IncuCyte live-cell imaging analysis; assay type: functional, cell-based
[20] = test system: HT-29; test: Induction of apoptosis in human HT-29 cells assessed as early apoptotic cells at 1 ug/ml measured after 24 hrs by Annexin V-FITC/propidium iodide staining based FACS analysis (reference value: 4.9%); assay type: functional
[21] = test system: HT-29; test: Antiproliferative activity against human HT-29 cells assessed as increase in dead cell population at 1.11 ug/ml measured after 66 hrs by IncuCyte live-cell imaging analysis; assay type: functional, cell-based
[22] = test system: HT-29; test: Antiproliferative activity against human HT-29 cells assessed as reduction in cell proliferation by IncuCyte live-cell imaging analysis; assay type: functional, cell-based
[23] = test system: HT-29; test: Antiproliferative activity against human HT-29 cells assessed as reduction in cell proliferation at 0.37 ug/ml after 72 hrs by phase contrast microscopy; assay type: functional, cell-based
[24] = test system: HT-29; test: Antiproliferative activity against human HT-29 cells assessed as increase in dead cell population at 10 ug/ml measured after 66 hrs by IncuCyte live-cell imaging analysis; assay type: functional, cell-based

COc1cc2c(Oc3ccc(C4SCC(=O)N4NC(=O)Nc4ccccc4Cl)cc3)ccnc2cc1OCCCN1CCOCC1 (stereo unspecified)
IC50 [1]: 6.5 µM | IC50 [2]: 8.5 µM

CCN1CCN(CCCOc2cc3nccc(Oc4ccc(C5SCC(=O)N5NC(=O)Nc5ccc(F)cc5F)cc4F)c3cc2OC)CC1 (stereo unspecified)
IC50 [1]: 0.32 µM | IC50 [2]: 1 µM

COc1cc2c(Oc3ccc(C4SCC(=O)N4NC(=O)Nc4ccc(F)cc4)cc3)ccnc2cc1OCCCN1CCOCC1 (stereo unspecified)
IC50 [1]: 4.8 µM | IC50 [2]: 4.9 µM

COc1cc2c(Oc3ccc(C4SCC(=O)N4NC(=O)Nc4ccc(F)c(F)c4F)cc3)ccnc2cc1OCCCN1CCOCC1 (stereo unspecified)
IC50 [1]: 4.4 µM | IC50 [2]: 5.5 µM

COc1cc2c(Oc3ccc(C4SCC(=O)N4NC(=O)Nc4cc(F)cc(F)c4)cc3)ccnc2cc1OCCCN1CCOCC1 (stereo unspecified)
IC50 [1]: 4.9 µM | IC50 [2]: 6.1 µM

COc1cc2c(Oc3ccc(C4SCC(=O)N4NC(=O)Nc4ccccc4)cc3)ccnc2cc1OCCCN1CCOCC1 (stereo unspecified)
IC50 [1]: 5.2 µM | IC50 [2]: 8.7 µM

COc1cc2c(Oc3ccc(C4SCC(=O)N4NC(=O)Nc4ccccc4F)cc3)ccnc2cc1OCCCN1CCOCC1 (stereo unspecified)
IC50 [2]: 7 µM

COc1cc2c(Oc3ccc(C4SCC(=O)N4NC(=O)Nc4ccc(F)cc4F)cc3)ccnc2cc1OCCCN1CCOCC1 (stereo unspecified)
IC50 [1]: 2.3 µM | IC50 [2]: 6 µM

COc1cc2c(Oc3ccc(C4SCC(=O)N4NC(=O)Nc4ccc(F)cc4F)cc3Cl)ccnc2cc1OCCCN1CCOCC1 (stereo unspecified)
IC50 [1]: 2.4 µM | IC50 [2]: 6.7 µM

COc1cc2c(Oc3ccc(C4SCC(=O)N4NC(=O)Nc4ccc(F)cc4F)cc3F)ccnc2cc1OCCCN1CCCN(C)CC1 (stereo unspecified)
IC50 [1]: 0.18 µM | IC50 [2]: 0.71 µM

COc1cc2c(Oc3ccc(C4SCC(=O)N4NC(=O)Nc4cccc(Cl)c4)cc3)ccnc2cc1OCCCN1CCOCC1 (stereo unspecified)
IC50 [1]: 7.7 µM | IC50 [2]: 8.9 µM

COc1cc2c(Oc3ccc(C4SCC(=O)N4NC(=O)Nc4ccc(F)cc4F)cc3F)ccnc2cc1OCCCN1CCN(C)CC1 (stereo unspecified)
Activity [3]: Dose-dependent effect | Activity [4]: 56.6% | IC50 [5]: 0.0187 µM | IC50 [6]: 0.4 µM | Activity [7]: Active | IC50 [8]: 6.66 µM | Activity [9]: Active | IC50 [1]: 0.11 µM | Activity [10]: 69.4% | IC50 [11]: 0.0086 µM | Activity [12]: Active | Activity [13]: Dose-dependent effect | IC50 [14]: 0.352 µM | IC50 [15]: 0.383 µM | Ratio [16]: >10 | Activity [17]: Dose-dependent effect | Activity [18]: 65.5% | Activity [19]: Active | IC50 [2]: 0.65 µM | Activity [20]: 62% | Activity [21]: Active | Activity [22]: Dose-dependent effect

COc1cc2c(Oc3ccc(C4SCC(=O)N4NC(=O)Nc4ccc(F)cc4F)c(F)c3)ccnc2cc1OCCCN1CCOCC1 (stereo unspecified)
IC50 [1]: 1.3 µM | IC50 [2]: 4.6 µM

COc1cc2nccc(Oc3ccc(NC(=O)C4(C(=O)Nc5ccc(F)cc5)CC4)cc3)c2cc1OC [CABOZANTINIB]
Activity [23]: Active | Activity [24]: Active | Activity [9]: Active | Activity [12]: Active | IC50 [2]: 8.5 µM

COc1cc2c(Oc3ccc(C4SCC(=O)N4NC(=O)Nc4ccc(F)cc4F)c(Cl)c3)ccnc2cc1OCCCN1CCOCC1 (stereo unspecified)
IC50 [1]: 2.8 µM | IC50 [2]: 6.1 µM

COc1cc2c(Oc3ccc(C4SCC(=O)N4NC(=O)Nc4ccc(F)cc4F)cc3F)ccnc2cc1OCCCN1CCOCC1 (stereo unspecified)
IC50 [1]: 0.86 µM | IC50 [2]: 2.1 µM

COc1cc2c(Oc3ccc(C4SCC(=O)N4NC(=O)Nc4ccc(Cl)cc4)cc3)ccnc2cc1OCCCN1CCOCC1 (stereo unspecified)
IC50 [1]: 6.6 µM | IC50 [2]: 6.7 µM

From ChEMBL document CHEMBL4392844 (Bioorg Med Chem, 2019)
